Columns and labels:
Assay type in all cases: in vivo, C57BL/6 mice
[1] = test system: high-fat-diet-induced obesity mouse model; assay: Fat mass and lean mass by DEXA in high-fat-diet-induced obesity mouse model; conditions: 10 mg/kg orally once a day for 13 weeks, vs vehicle
Protocol: (§1) 8-week-old C57BL/6 mice were fed with a 60% high-fat diet, and a vehicle or irosustat (10 mg/kg) prepared in Preparation Example 1 was administered orally to the mice once a day for a total of 10 days.
An experiment was performed under the same conditions as in Experimental Example 1 above, except that the mice were imaged using DEXA (Dual-energy X-ray absorptiometry) after the vehicle or irosustat was administered orally to the mice for 13 weeks.

[2] = test system: high-fat-diet-induced obesity mouse model; assay: Insulin tolerance test (ITT) in high-fat-diet-induced obesity mouse model; conditions: 10 mg/kg orally for 12 weeks, 2 h fast, insulin 0.8 units/kg i.p., 0-120 min, vs vehicle
Protocol: as §1
An experiment was performed under the same conditions as in Experimental Example 1 above, except that the mice were fasted for 2 hours after oral administration of irosustat for 12 weeks, and then the blood glucose levels of the mice were measured and insulin was injected intraperitoneally into the mice at a dose of 0.8 units/kg body weight. 0 min, 15 min, 30 min, 60 min, 90 min and 120 min after intraperitoneal injection, blood was collected from the tail of each mice and the glucose level in the blood was measured.

[3] = test system: high-fat-diet-induced obesity mouse model; assay: Glucose tolerance test (GTT) in high-fat-diet-induced obesity mouse model; conditions: 10 mg/kg orally for 11 weeks, 16 h fast, glucose 1 g/kg i.p., 0-120 min, vs vehicle
Protocol: as §1
An experiment was performed under the same conditions as in Experimental Example 1 above, except that the mice were fasted for 16 hours after oral administration of irosustat for 11 weeks, and glucose was injected intraperitoneally into the mice at a dose of 1 g/kg body weight. 0 min, 15 min, 30 min, 60 min, 90 min and 120 min after intraperitoneal injection, blood was collected from the tail of each mice and the glucose level in the blood was measured. However, during the glucose tolerance test, a stable environment was provided to the experimental animals. In addition, AUC (area under the glucose-time curve) was measured using the following Equation 1 and the results are shown in FIG. 8. In Equation 1, C0, C15, C30, C60, C90 and C120 are glucose levels measured at 0 min, 15 min, 30 min, 60 min, 90 min and 120 min, respectively. AUC=0.5×(0.5×C0+C15+C30+C60+C90+0.5×C120) [Equation 1]

[4] = test system: high-fat-diet-induced obesity mouse model; assay: Blood cholesterol and triglyceride levels in high-fat-diet-induced obesity mouse model; conditions: 10 mg/kg orally once a day for 13 weeks, vs vehicle
Protocol: as §1
An experiment was performed under the same conditions as in Experimental Example 1 above, except that the blood cholesterol and triglyceride levels in the control group and the drug-administered group were measured after oral administration of irosustat for 13 weeks. The results of measurement of the cholesterol and triglyceride levels are shown in FIGS. 11 and 12, respectively.

[5] = test system: high-fat-diet-induced obesity mouse model; assay: Adipocyte size in abdominal fat tissue, high-fat-diet-induced obesity mouse model; conditions: 10 mg/kg orally once a day for 13 weeks, vs vehicle
Protocol: as §1
An experiment was performed under the same conditions as in Experimental Example 1 above, except that the mice were euthanized after oral administration of irosustat for 13 weeks and abdominal fat tissue was taken and then imaged with a microscope. In addition, the areas of adipocytes in the abdominal fat tissue in the control group and the drug-administered group were measured, and the results are shown in FIG. 5.

[6] = test system: high-fat-diet-induced obesity mouse model; assay: Weight loss effect in high-fat-diet-induced obesity mouse model; conditions: irosustat 10 mg/kg orally once a day, 60% high-fat diet
Protocol: as §1

[7] = test system: high-fat-diet-induced obesity mouse model; assay: Hepatic steatosis amelioration, liver tissue microscopy, high-fat-diet-induced obesity mouse model; conditions: 10 mg/kg orally once a day for 13 weeks, vs vehicle
Protocol: as §1
An experiment was performed under the same conditions as in Experimental Example 1 above, except that the mice were euthanized after oral administration of irosustat for 13 weeks and hepatic tissue was taken and then imaged with a microscope.

Q: `NS(=O)(=O)Oc1ccc2c3c(c(=O)oc2c1)CCCCC3` [irosustat, (6-oxo-8,9,10,11-tetrahydro-7H-cyclohepta[c]chromen-3-yl) sulfamate] was tested. Which fat mass [1] did it give?
A: significantly decreased

Q: What about the “blood glucose level in insulin tolerance test (time course and AUC)” value [2] of the same molecule?
A: significantly decreased

Q: What about the “blood glucose level in glucose tolerance test (time course and AUC)” value [3] of the same molecule?
A: significantly decreased

Q: And the blood cholesterol level [4]?
A: significantly decreased

Q: And the blood triglyceride level [4]?
A: significantly decreased

Q: And the “size of adipocytes in abdominal fat tissue” value [5]?
A: significantly decreased

Q: And the body weight ([6]; C57BL/6 mice, vehicle control 36.4+/−3.4 g)?
A: 31.4 ± 5.0 g

Q: And the “decrease of body weight compared to control group” value ([6]; vs vehicle)?
A: about 14%

Q: What about the “findings of hepatic steatosis caused by the high-fat diet” value [7] of the same molecule?
A: significantly improved

Reference: patent publication US11857533B2, “Composition for preventing or treating obesity or lipid-related metabolic disorders” (Nexyon Biotech Co., Ltd., priority 2019, dated 2024)
